In US10786505B2, “Administration of NEDD8-activating enzyme inhibitor and chemotherapeutic agents” (Millennium Pharmaceuticals, Inc., priority 2013, dated 2020):

Tests used:
[1] = tested on: NCI-H69; assay: In vitro cell viability combination assay (CellTiter-Glo); type: cell-based; settings: agent combined with MLN4924, vehicle DMSO, 96 hr
From the text: After normalization, the controls are discarded.
Otherwise, the classification is “Additivity”.

[2] = tested on: NCI-H69 xenograft model; assay: Combination of cisplatin and MLN4924 in NCI-H69 xenograft model; type: in vivo, mice; settings: 4 mg/kg Cisplatin Q4Dx3 IP
Description: (§1) NCI-H69 or NCI-H82 small cell lung tumor fragments (30- to 40-mg) are implanted into the subcutaneous space in the area of the right flank of NCr nu/nu mice (7-10 weeks, Charles River Laboratories, Inc, Frederick Md. or Wilmington, Mass.) using a 12-gauge trocar.
(§2) Tumors are measured twice weekly using a vernier caliper. Tumor volumes are calculated using standard procedures (0.5×(length×width^2)). […] Tumor size and body weight are measured approximately twice a week for the duration of the study. Mice are euthanized when their tumor volume reached 10% of their body weight, or when the average tumor volume of a treatment or control group reached approximately 2000 mm^3. Tumor growth continued to be monitored after the dosing period in some studies. Average tumor volume is reported as a function of time for selected groups of selected studies in Figures A, B, and C.
(§3) Measurements from day 0 to 18, 21 or 22 are analyzed as specified in Tables 4-9. All tumor volumes have a value of 1 added to them before log10 transformation. For each animal, the log tumor volume at day 0 is subtracted from the log tumor volume on the subsequent days. This difference vs. time is used to calculate an area under the curve (AUC) for each animal using the trapezoid rule. […] The synergy score for the combination of agents A and B is defined as 100*(mean(AUCAB)−mean(AUCA)−mean(AUCB)+mean(AUCctl))/mean(AUCctl): where AUCAB, AUCA, AUCB, and AUCctl are the AUC values for animals in the combination group, the A group, the B group, and the control group, respectively. The standard error of the synergy score is computed based on the variation in the AUC values among the animals. […] If the P-value is above 0.05, then the combination is considered to be additive. If the P-value is below 0.05, and the synergy score is less than zero, then the combination is considered to be synergistic. […] Otherwise, the combination is classified as antagonistic.

[3] = tested on: NCI-H82 xenograft model; assay: Combination of cisplatin and MLN4924 in NCI-H82 xenograft model; type: in vivo, mice
Description: as §1, §2, §3

[4] = tested on: A549; assay: In vitro cell viability combination assay (CellTiter-Glo); settings: 72 hr
Description: (§6) General Method: Cells are grown in their respective growth media, supplemented with 10% fetal bovine serum unless otherwise noted. […] A portion of each plate is used for positive controls (no agent is added), while another portion of each plate is used for negative controls (no cells are added). Viability is assessed with CellTiter-Glo® Cell Viability reagent used according to manufacturer's instructions (Promega). Luminescence is measured using a LEADseeker imaging system (GE Healthcare).
(§7) The viability data is normalized separately for each plate by scaling the data so that the median of the negative controls is 0 and the median of the positive controls is 100. More formally,
(§8) [formula] where Vi is the normalized viability of the i^th well, Ui is the raw viability measurement, median (U) is the median of the negative controls, and median (U+) is the median of the positive controls. After normalization, the controls are discarded.
(§9) where E1, E2, E3, E4, I1, I2, I3, S1, S2, S3, and S4 are parameters, CA and CB are the respective concentrations of agents A and B, and V is the normalized viability measurement. It is assumed that the error values are independent and identically distributed normal random variables.
(§10) The Combination Index is computed based on an isobologram, which is a slice of the dose response surface with constant viability. For the present analysis, the 50% isobologram, which is the dose contour that has 50% viability, is used. […] Since the choice of (DA, DB) can be arbitrary, the constraint DA/DB=EC50A/EC50B is used.
(§11) In such cases, Nonlinear Blending can be used as an alternative measure of synergy or additivity. Nonlinear Blending is found by considering a slice of the dose response surface that intersects both concentration axes and runs parallel to the viability axis. Let VA and VB be the viability where the slice intersects the drug A and B axes, respectively. Let Vmax and Vmin be the maximum and minimum viabilities along the slice. Let NLBS=min(VA,VB)−Vmin NLBA=Vmax−max(VA,VB) Define the Nonlinear Blending value to be NLBS if NLBS>NLBA and −NLBA otherwise.
(§12) After completing the analysis of individual plates, the results are combined across the replicates. For a given measure and a set of replicates, the overall mean and standard error are computed using weighted averaging. A null mean, which corresponded to an additive effect, is then compared with the overall mean. The null mean is 1 for the Combination Index and 0 for Nonlinear Blending. Next, a two sized Z-test is performed based on the estimated mean and standard error. This produces a p-value for each measure and each cell line.
(§13) After computing the mean, standard error, and p-value for each set of replicates, these values require interpretation. Thus, a standard procedure is used to produce a classification (synergy, additivity, subadditivity, antagonism, or inconclusive) in each case. If the Combination Index exists for more than half of the replicates, then these measures are used to make the classification.
(§14) Consider the case where the Combination Index is used to make the classification. If the p-value is greater than 0.05, the estimate for the Combination Index is not statistically different from 1. However, if the standard error is also very large, then the estimate is too uncertain to be informative. […] Otherwise, the classification is “Additivity”. When the p-value is less than 0.05, the estimate for the Combination Index is statistically different from 1. However, if the mean is still close to 1, then the difference is not of practical significance. Thus, the result is classified based on the mean. A mean in the range (0.8, 1.2) is considered close enough to 1 to be classified as Additivity. A mean in the range (0, 0.8) is considered low enough to be classified as Synergy. […] The threshold value of 2 can be derived from the definition of the Combination Index.

[5] = tested on: HCT116; assay: as above; settings: 48 hr
Description: as §6, §7, §8, §9, §10, §11, §12, §13, §14

[6] = tested on: NCI-H209; assay: as above; settings: agent combined with MLN4924, vehicle DMSO, 96 hr
Description: as §6, §7, §8, §9, §10, §11, §12, §13, §14

[7] = tested on: NCI-H510; assay: as above; settings: agent combined with MLN4924, vehicle DMSO, 96 hr
Description: as §6, §7, §8, §9, §10, §11, §12, §13, §14

[8] = tested on: NCI-H82; assay: as above; settings: agent combined with MLN4924, vehicle DMSO, 96 hr
Description: as §6, §7, §8, §9, §10, §11, §12, §13, §14

[9] = tested on: PHTX02B breast xenograft model; assay: Combination of docetaxel and MLN4924 in PHTX02B xenograft model; type: in vivo, mice
From the text: The PHTX02B breast xenograft model was established from a patient-derived tumor collected during surgery from a person with invasive ductal carcinoma classified as triple negative breast cancer (ER−/PR−/Her2−) by IHC. PHTX02B tumor fragments (approximately 2×2×3 mm^3) are implanted into the subcutaneous space in the right dorsal flank of female SCID-NOD mice (age 5-7 weeks, Jackson Laboratory, Bar Harbor, Me.) using a 13-gauge trocar.
(§4) Docetaxel (Henry Schein, Inc., Pittsburgh Pa., Qilu Pharmaceutical Co., Ltd., Jinan, Shandong, China, and Sanofi-Aventis) is formulated in 0.9% saline and administered by intravenous injection (IV) once weekly (QW) at 5 mg/kg or 10 mg/kg.
as §2, §3

[10] = tested on: NCI-H1650 xenograft model; assay: Combination of docetaxel and MLN4924 in NCI-H1650 xenograft model; type: in vivo, mice
From the text: NCI-H1650 (2×10^6) tumor cells in RPMI-1640 media are mixed with an equal volume of Matrigel (BD Biosciences) and aseptically injected into the subcutaneous space in the right dorsal flank of Balb/c Nude mice (age 4-6 weeks, Shanghai SINO-British SIPPR/BK Lab Animal Ltd.) using a 25-gauge needle.
as §4, §2, §3

[11] = tested on: LU1143 xenograft model; assay: Combination of docetaxel or carboplatin and MLN4924 in LU1143 xenograft model; type: in vivo, mice; settings: 10 mg/kg docetaxel QW IV
Description: as §4
(§5) Carboplatin (CARBOplatin Injection, Hospira, Inc., Qilu Pharmaceutical Co., Ltd. Jinan, Shandong, China, and Teva Gry-Pharma GmbH, Ulm, Germany) is formulated in 0.9% saline and administered by IP injection once weekly (QW) at 50 mg/kg. The once weekly schedule is also described as every 7 days (Q7D).
as §2
Measurements from day 0 to 18, 21 or 22 are analyzed as specified in Tables 4-9. All tumor volumes have a value of 1 added to them before log10 transformation. For each animal, the log tumor volume at day 0 is subtracted from the log tumor volume on the subsequent days. This difference vs. time is used to calculate an area under the curve (AUC) for each animal using the trapezoid rule. […] The synergy score for the combination of agents A and B is defined as 100*(mean(AUCAB)−mean(AUCA)−mean(AUCB)+mean(AUCctl))/mean(AUCctl): where AUCAB, AUCA, AUCB, and AUCctl are the AUC values for animals in the combination group, the A group, the B group, and the control group, respectively. The standard error of the synergy score is computed based on the variation in the AUC values among the animals. […] If the P-value is above 0.05, then the combination is considered to be additive. […]

[12] = tested on: LXFE409 xenograft model; assay: Combination of docetaxel or carboplatin and MLN4924 in LXFE409 xenograft model; type: in vivo, mice
Description: LXFE409 squamous non small cell lung cancer tumor fragments are implanted into the subcutaneous space in the flank of female NMRI nu/nu mice (5-7 weeks, Janvier Labs, Saint Berthevin, France).
as §4, §5, §2, §3

[13] = tested on: NCI-H526; assay: In vitro cell viability combination assay (CellTiter-Glo); settings: agent combined with MLN4924, vehicle DMSO, 96 hr
Description: as §6, §7, §8, §9, §10, §11, §12, §13, §14

[14] = agent combined with MLN4924, vehicle DMSO
[15] = agent combined with MLN4924, vehicle PBS

Compound	Nonlinear Blending [1]	Combination Index [4, 14]	Nonlinear Blending [4, 14]	Nonlinear Blending [4, 15]	Combination Index [5, 14]	Nonlinear Blending [5, 14]	Nonlinear Blending [5, 15]	Combination Index [6]	Nonlinear Blending [6]	Nonlinear Blending [7]	Combination Index [8]	Nonlinear Blending [8]	Nonlinear Blending [13]	further results
N.N.[Cl][Pt][Cl] [cisplatin]	−7 ± 3	0.65 ± 0.03	11 ± 5	10 ± 1	0.76 ± 0.02	21 ± 1	14 ± 6	1.28 ± 0.08	−15 ± 3	20 ± 3	0.81 ± 0.07	10 ± 2		Combination Index [1]: 1.28 ± 0.2; average tumor volume day 22 [2]: 213.6 mm^3; average tumor volume day 22 ([3]; 2 mg/kg cisplatin Q4Dx3 IP): 628.7 mm^3; average tumor volume day 22 ([3]; 4 mg/kg cisplatin Q4Dx3 IP): 445.2 mm^3; Combination Index [4, 15]: 0.75 ± 0.05; Combination Index [5, 15]: 0.76 ± 0.09
CC(=O)O[C@@]12CO[C@@H]1C[C@H](O)[C@@]1(C)C(=O)[C@H](O)C3=C(C)[C@@H](OC(=O)[C@H](O)[C@@H](NC(=O)OC(C)(C)C)c4ccccc4)C[C@@](O)([C@@H](OC(=O)c4ccccc4)[C@H]21)C3(C)C [docetaxel]		1.00 ± 0.1	1 ± 1		1.01 ± 0.09	7 ± 2		1.27 ± 0.09	−16 ± 5	−13 ± 4	1.45 ± 0.09	−11 ± 2	−23 ± 3	tumor growth during the treatment period (in words) ([9]; PHTX02B breast xenograft, FIG. 1, MLN4924 SC 60 mg/kg BID 5 days on/5 days off, docetaxel 5 mg/kg IV QW, single agents or their combination): inhibited tumor growth compared to the control vehicle group; average tumor volume day 21 ([9]; PHTX02B xenograft, 5 mg/kg docetaxel QW IV): 736.3 mm^3; average tumor volume day 21 ([10]; 5 mg/kg docetaxel QW IV): 719.2 mm^3; average tumor volume day 21 ([10]; 10 mg/kg docetaxel QW IV): 282.7 mm^3; average tumor volume day 21 [11]: 498.9 mm^3; tumor course after the treatment period, to end of study on day 95 (in words) ([12]; LXFE409 sqNSCLC model, FIG. 4, MLN4924 120 mg/kg SC Q2Dx3/week for 3 weeks, docetaxel 10 mg/kg IV QW for 3 weeks, single agents or combination): regrew after the treatment period ended; average tumor volume day 21 ([12]; LXFE409 xenograft, 10 mg/kg docetaxel QW IV): 44.6 mm^3; Combination Index [7]: 1.15 ± 0.08; Combination Index [13]: 1.38 ± 0.06
O=C1[O][Pt]2([NH][C@@H]3CCCC[C@H]3[NH]2)[O]C1=O [oxaliplatin]	11 ± 3			2 ± 2			10 ± 5		−5 ± 2	2 ± 3		6 ± 2	−8 ± 4	
CC(=O)O[C@H]1C(=O)[C@@]2(C)[C@H]([C@H](OC(=O)c3ccccc3)[C@]3(O)C[C@H](OC(=O)[C@H](O)[C@@H](NC(=O)c4ccccc4)c4ccccc4)C(C)=C1C3(C)C)[C@]1(OC(C)=O)CO[C@@H]1C[C@@H]2O [paclitaxel]	−16 ± 4		−6 ± 0.9			−14 ± 2			−8 ± 3	−22 ± 4		−16 ± 2	−26 ± 3	
